From US8987332B2, “Methods of treating inflammatory conditions” (The Regents of the University of California, priority 2009, dated 2015) come the findings set out here.

Structures are written as SMILES.

One assay deals with WT mice on 60% HFD. Briefly: Hyperinsulinemic/euglycemic clamp in HFD-fed WT mice. As to conditions: gavage 300 μl EPAX 1050TG, clamp 4 hr after gavage, vs saline. It is filed as in vivo, mouse.
In the next assay the test system is IPMacs from WT mice. Briefly: In vitro transwell chemotaxis assay, WT IPMacs. It is filed as cell-based, mouse. As to conditions: pretreatment 3 hr before exposure to 3T3-L1 adipocyte conditioned media. On the procedure: (§1) It seemed possible that the reduction in ATM content in WT animals on the ω-3 FA diet reflected decreased chemotaxis of macrophages. To test this hypothesis, we measured the migratory capacity of IPMacs from WT and GPR120 KO mice using an in vitro transwell chemotaxis assay. […] Similar experiments were performed using the specific chemokine, monocyte chemotactic protein-1 (MCP-1) as a chemoattractant, rather than CM, and these experiments yielded identical results (FIG. 6D).
In vitro chemotaxis assay was performed as previously described (Patsouris et al., 2009). Briefly, mature 3T3-L1 adipocytes, more than 99% of cells showing large lipids droplets (12 days after differentiation protocol initiation), were used for preparation of conditioned media. […] For the migration per se, 100,000 IPMacs from WT or GPR120 KO mice were used per condition. The IPMacs were placed in the upper chamber of an 8 μm polycarbonate filter (24-transwell format; Corning, Lowell, Mass.), whereas adipocyte conditioned medium or MCP-1 treatment was placed in the lower chamber. After 3 hr of migration, cells were fixed in formalin and stained with 4′,6-diamidino-2-phenylindole and observed.

The test system of assay [1] is 3T3-L1 adipocytes. Kind of assay: Akt and IRS-1 phosphorylation in 3T3-L1 adipocytes (western blotting). The assay is classed as cell-based. How it is done: FIG. 10, related to FIG. 4. DHA activates Akt phosphorylation in a GPR120-dependent manner. (A) Differentiated 3T3-L1 adipocytes were transfected with scrambled or GPR120 siRNA and then 48 hr after siRNA transfection, cells were treated with 100 μM of DHA 30 min prior to insulin (3 ng/ml) treatment for 7 min followed by western blotting with phosphorylated Akt (S473) antibody. […] Data are expressed as the mean±SEM of three independent experiments. *, p<0.05 versus basal. (B) Cells were treated with the PI3K inhibitor LY294002 (50 μM) for 30 min before DHA (100 μM) or insulin (3 ng/ml) treatment. (C) Phosphorylation of IRS-1 was detected after DHA or insulin treatment of 3T3-L1 adipocytes. (D) Schematic diagram of GPR120-mediated Akt activation in 3T3-L1 adipocytes.
(§2) Proteins from tissues or cell lysates were extracted with radioimmune precipitation buffer in the presence of phosphatase inhibitors and protease inhibitors (Roche Applied Science). […] of proteins/lane were separated on a 10% polyacrylamide, precast SDS gel (Bio-Rad) followed by transfer on polyvinylidene difluoride membrane (Immobilon, Millipore), and western blotting was performed as described (Nguyen et al., 2005) with indicated antibodies. […]
Background: A western blot detects proteins with antibodies after separation by electrophoresis.

Assay [2] relates to RAW 264.7 cells. Kind of assay: LPS-induced inflammatory signaling and cytokine secretion in RAW 264.7 cells. The assay is classed as cell-based, mouse. Conditions: for LPS-induced phosphorylation of JNK and IKKβ, IκB degradation, cytokine secretion and inflammatory gene expression level: pretreated 1 hr. The text has this: FIG. 1. Expression level of GPR120 and GPR120-mediated anti-inflammatory response in RAW 264.7 cells. (A) The mRNA expression pattern of various lipid sensing GPCRs is shown in adipose tissue, (B) CD11c+ bone marrow-derived dendritic cells (BMDCs), bone marrow-derived macrophages (BMDMs), IPMacs, 3T3-L1 preadipocytes, differentiated 3T3-L1 adipocytes, RAW 264.7 cells and L6 myocytes. Ribosomal protein S3 (RPS3) was used as internal control. (C) Expression of GPR120 in SVF, adipocytes and hepatic Kupffer cells from chow (NC)- or HFD-fed mice was examined by q-PCR. Data are expressed as the mean±SEM of at least three independent experiments in triplicate. *, p<0.05 versus NC. (D) RAW 264.7 cells, transfected with scrambled (Scr) or GPR120 #2 siRNA (GPR120 KD), were treated with 100 μM of GW9508 for 1 hr prior to LPS (100 ng/ml) treatment for 10 min and then subjected to western blotting. […] (E) Cytokine secretion level was measured in RAW 264.7 cells by ELISA. Data are expressed as the mean±SEM of three independent experiments. *, p<0.05 versus LPS treatment in scrambled siRNA transfected cells. See also FIGS. 8 and 9.
Proteins from tissues or cell lysates were extracted with radioimmune precipitation buffer in the presence of phosphatase inhibitors and protease inhibitors (Roche Applied Science). […] of proteins/lane were separated on a 10% polyacrylamide, precast SDS gel (Bio-Rad) followed by transfer on polyvinylidene difluoride membrane (Immobilon, Millipore), and western blotting was performed as described (Nguyen et al., 2005) with indicated antibodies. For immunoprecipitations, lysates were incubated with 1 μg of anti-β-arrestin2, TAK1 antibody (Cell signaling), or GFP antibody (Santa Cruz Biotechnology) overnight at 4° C. and immune complexes precipitated with Protein A/G-conjugated beads (Invitrogen). Beads were washed with PBS and resuspended in sample buffer. Lysates and immune complexes were separated by SDS-PAGE, subjected to western blotting.
TNF-α and IL-6 were directly quantified from RAW 264.7 cells with or without GPR120 knockdown, or IPMacs culture medium. Cells were treated with 100 μM GW9508 or DHA for 1 hr prior to treat 100 ng/ml LPS for 6 hr and then collect medium from the cells and subjected to ELISA according to the manufacturer's instructions (BIOSOURCE). For GLP-1 measurement, mouse blood was collected 1 hr after indicated diet feeding. Adequate inhibitors (protease inhibitors and Diprotin A as DPP IV inhibitor) were used while blood was collecting and then subjected to ELISA to the manufacturer's instructions (ALPCO, Salem, N.H.).

In a further assay the test system is L6 myocytes. Kind of assay: 2-deoxyglucose uptake in L6 myocytes. The assay is classed as cell-based. As to conditions: 100 μM, compared to vehicle treated cells. On the procedure:
FIG. 11, related to FIG. 5. Hyperinsulinemic/euglycemic clamp studies in bone marrow transplanted animals and muscle expression of GPR120. For bone marrow transplantation studies, WT or GPR120 KO mouse bone marrow (BM) was injected into irradiated WT C57B1/6 animals after 8 weeks for BM reconstitution, GPR120 was >90% reduced in circulating monocytes. Animals were then kept on either chow or switched to 60% HFD for weeks (±supplemention with ω-3 FAs for 5 weeks). (A) BMT GPR120 KO animals on chow are insulin resistant compared to WT controls. This effect is mediated by decreased GIR and a greater suppression of HGP in WT animals compared to KOs (n=5 for WT and n=6 per KO group). (B) BMT GPR120 KO animals on HFD supplemented with […] FAs (+ω3) are insulin resistant compared to WT controls. This effect is shown by decreased GIR, decreased IS-GDR, and a greater suppression of HGP in WT animals compared to KOs. (C) GPR120 expression levels in various tissues. RPS3 was the internal control for normalization. GPR120 is not expressed in soleus, or EDL muscle. […] Data are expressed as mean±SEM. *, p<0.05 compared to WT in (A) and (B).
HA-GLUT4-eGFP expression vector were electroporated into day 8 post differentiated 3T3-L1 adipocytes for monitoring of GLUT4 translocation as previously described (Yoshizaki et al., 2007). […] Glucose uptake was measured as previously described (Imamura et al., 1999).

Assay [3] has as its system RAW 264.7 cells. Briefly: ERK1/2 phosphorylation in RAW 264.7 cells. It is filed as cell-based, mouse. As to conditions: 100 μM, 5 min. On the procedure: FIG. 9, related to FIGS. 2 and 3. DHA-stimulated GPR120 inhibits TNF-α, TLR2 and TLR3-induced inflammation via a β-arrestin2 dependent mechanism. (A) ERK1/2 phosphorylation stimulated by GPR120 activation in RAW 264.7 cells transfected with scrambled or GPR120 siRNA. Cells were treated with 100 μM of DHA, α-linolenic acid or palmitic acid for 5 min. […] Data are expressed as the mean±SEM of three independent experiments. *, p<0.05 versus scrambled siRNA transfected cells. (B) Differentiated 3T3-L1 adipocytes were transfected with scrambled or GPR120 siRNA (GPR120 KD) and then 48 hr after siRNA transfection, cells were treated with 100 μM of DHA or GW9508 for 1 hr prior to TNF-α (10 ng/ml) treatment for 7 min prior to harvesting and then subjected to western blotting with the indicated antibodies. (C) RAW 264.7 cells, transfected with scrambled or GPR120 siRNA (GPR120 KD), were treated with 100 μM of DHA for 1 hr prior to 10 min TLR2 ligand, Pam3CSK4 (50 ng/ml), or TLR3 ligand, poly(I:C) (1 μg/ml), treatment and then subjected to western blotting. (D) To characterize the interaction site between β-arrestin2 and GPR120 or TAB1, HA-tagged GPR120 and FLAG-tagged serial C-terminal deletion mutants of β-arrestin2 (full, 1-300, 1-253, 1-176, and 1-163) or an N-terminal deletion mutant (80-410) were cotransfected in 293 cells. For immunoprecipitation of FLAG-βarr2 and HA-GPR120, cells were treated with DHA for 30 min, while DHA was used for 1 hr to detect endogenous TAB1 and FLAG-βarr2 interactions.
as §2

The subject of assay [4] is 3T3-L1 adipocytes. Briefly: GLUT4 translocation and 2-deoxyglucose uptake in 3T3-L1 adipocytes. Conditions: for glucose transport: pretreated 30 min. It is filed as cell-based. On the procedure: FIG. 4. GPR120 activation enhances GLUT4 translocation and glucose uptake. (A) 3T3-L1 adipocytes were transfected with a dually tagged HA-GLUT4-GFP construct. Total GLUT4 expression was determined by GFP fluorescence, and GLUT4 translocation to the cell surface after 100 ng/ml insulin or 100 μM DHA stimulation for 30 min was determined by indirect immunofluorescence of the HA-conjugated with Alexa 594 in fixed cells. Translocation following insulin stimulation was expressed as a percentage of the maximum response. Bar graph represents the mean±SEM data from four independent experiments. *, p<0.05 vs. vehicle treatment. (B) Glucose uptake was measured in WT and GPR120 KO mouse primary adipose tissue and in (C-F) 3T3-L1 adipocytes±siRNA with the indicated treatment. […] Data are expressed as mean±SEM of three independent experiments in triplicate. *, p<0.05 vs. basal activity. The indicated siRNA knockdown efficiency was validated by western blotting. See also FIG. 10.
HA-GLUT4-eGFP expression vector were electroporated into day 8 post differentiated 3T3-L1 adipocytes for monitoring of GLUT4 translocation as previously described (Yoshizaki et al., 2007). For 2-DOG assay, 3T3-L1 adipocytes were pretreated for 30 min with the indicated drug; and stimulated with 3 ng/ml of insulin for 30 min at 37° C. L6 myocytes were pretreated for 30 min with 100 μM DHA and then stimulated with 100 ng/ml of insulin for 30 min. Glucose uptake was measured as previously described (Imamura et al., 1999).

Assay [5] deals with IPMacs from GPR120 KO mice. Briefly: In vitro transwell chemotaxis assay, GPR120 KO IPMacs. As to conditions: pretreatment before exposure to conditioned media. The assay is classed as cell-based, mouse. On the procedure: as §1
In vitro chemotaxis assay was performed as previously described (Patsouris et al., 2009). Briefly, mature 3T3-L1 adipocytes, more than 99% of cells showing large lipids droplets (12 days after differentiation protocol initiation), were used for preparation of conditioned media. Treatment with the 100 μM DHA for 6 hr was performed in serum-free DMEM cultured IPMacs. For the migration per se, 100,000 IPMacs from WT or GPR120 KO mice were used per condition. The IPMacs were placed in the upper chamber of an 8 μm polycarbonate filter (24-transwell format; Corning, Lowell, Mass.), whereas adipocyte conditioned medium or MCP-1 treatment was placed in the lower chamber. After 3 hr of migration, cells were fixed in formalin and stained with 4′,6-diamidino-2-phenylindole and observed.

Where [6] appears, read: 100 μM 1 hr prior to LPS 100 ng/ml 10 min.

Consider `CC/C=C\C/C=C\C/C=C\C/C=C\C/C=C\C/C=C\CCC(=O)O` [DHA], for which the “whole body glucose homeostasis after acute treatment” value in the assay with WT mice on 60% HFD was “no effect”. Besides, the “inhibition of chemotactic capacity” value with IPMacs from WT mice is given as 80%. In the assay on 3T3-L1 adipocytes [1], the IRS-1 phosphorylation entry is “did not stimulate”. Further, in the assay with 3T3-L1 adipocytes [1] (100 μM), the “phosphorylation of Akt” value was “modest effect”. Moreover, in the assay on RAW 264.7 cells [2] (RAW 264.7 cells), the “LPS-induced TAK1 and MKK4 phosphorylation” value is “abrogated”; the “LPS-induced phosphorylation of JNK and IKKβ, IκB degradation, cytokine secretion and inflammatory gene expression level” value was “strongly inhibited”. Further, in the assay on L6 myocytes, the glucose uptake entry was “not altered”. In the assay with RAW 264.7 cells [3], the ERK phosphorylation result is “activated”. Besides, the “GLUT4 translocation to the cell surface” value with 3T3-L1 adipocytes [4] (100 μM, 30 min) is “increased”. Also, the “effect on glucose uptake relative to the effect of insulin” value with 3T3-L1 adipocytes [4] (3T3-L1 adipocytes) is given as 30-50%. In addition, the glucose transport result with 3T3-L1 adipocytes [4] is listed as “increase”. In addition, the “effect on chemotactic capacity” value in assay [5] is listed as “no significant effect”.

With `O=C(O)CCc1ccc(NCc2cccc(Oc3ccccc3)c2)cc1` [GW9508], in the assay with RAW 264.7 cells [2] (setting [6]), the IκB degradation result is listed as “prevented”; the “LPS stimulated phosphorylation of IKKβ and JNK” value is recorded as “inhibited”. In the assay on RAW 264.7 cells [2] (100 μM 1 hr prior to LPS 100 ng/ml 6 hr, ELISA), the “TNF-α and IL-6 secretion” value was “inhibited”. The “LPS-induced phosphorylation of JNK and IKKβ, IκB degradation, cytokine secretion and inflammatory gene expression level” value with RAW 264.7 cells [2] (RAW 264.7 cells) was “strongly inhibited”. Besides, the glucose transport result in the assay on 3T3-L1 adipocytes [4] was “stimulatory effect”.

Turning to `CCCCCCCCCCCCCCCC(=O)O` [palmitic acid], the ERK phosphorylation entry in the assay on RAW 264.7 cells [3] was “activated”.

With `CC/C=C\C/C=C\C/C=C\CCCCCCCC(=O)O` [α-linolenic acid], the ERK phosphorylation result in the assay on RAW 264.7 cells [3] is “activated”.
